Data: patent publication US11357752B2, “Carolacton and derivatives thereof for use in the treatment of cell proliferation disorders” (Helmholtz-Zentrum für Infektionsforschung GmbH, priority 2017, dated 2022)
“And” between values parts separate entries of the source, which are not always exact repeats. Equal values may be shown once. Read-outs that look alike come from different tables or passages of the source.

Legend:
ecFoID = molecular target: T1, ecFoID (Escherichia coli, UniProt P24186); experiment: FoID cyclohydrolase (CYH) enzyme assay; type: biochemical, E. coli
T1 construct: His-tag (vector pHis-TEV); made in house; host or cells: E. coli BL21 (DE3)
Description: (6R,S)-5,10-Methylene-5,6,7,8-tetrahydrofolic acid ((6R,S)-5,10-CH2-THF), calcium salt and (6R,S)-5,10-Methenyl-5,6,7,8-tetrahydrofolic acid ((6R,S)-5,10-CH=THF) chloride were purchased from Schircks Laboratories (Bauma, Switzerland) and were used as substrates for FoID dehydrogenase and cyclohydrolase enzyme assays, respectively. Only the R-isomer, which accounts for 50% of (6R,S)-5,10-CH2-THF and (6R,S)-5,10-CH=THF, respectively, is used by the enzyme. (6R,S)-5,10-CH2-THF was dissolved in N2-spargeled basic buffer (50 mM Tris-HCl (pH 8.0), 100 mM β-mercaptoethanol) as described by Sah and Varshney, 2015a (6R,S)-5,10-CH=THF was first dissolved in DMSO as a 100 mM stock solution.
Because FoID is a bifunctional enzyme, dehydrogenase and cyclohydrolase activities were determined for FoID enzyme kinetics, respectively. The dehydrogenase activity of FoID was assayed for its substrate 5,10-CH2-THF and cofactor NADP+ (in the case of MTHFD2, NAD+ was used as cofactor) based on monitoring the formation of 5,10-CH=THF while the cyclohydrolase activity of FoID was determined for its substrate 5,10-CH=THF by monitoring the hydrolysis of 5,10-CH2-THF. The enzyme kinetics for the dehydrogenase activity of all FoIDs except hsMTHFD1_DC were determined at 30° C. in 50 mM Tris-HCl (pH 7.5), 30 mM β-mercaptoethanol. […]

THP-1 cells = experiment: CellTiter-Glo luminescent cell viability assay; type: cell-based, human; conditions: for IC50: Homo sapiens, THP-1, 72 h, 72 h
Description: To evaluate the effects of one compound on 7 cell lines with a CellTiter-Glo Luminescent Cell Viability Assay. Cells were treated with compounds for 72 hours at 37° C./5% CO2 incubator. Compound stock concentration was 20 mM, concentrations to be assayed 100\50\15\10.5\0.1\0.05\0.01\0.005 pM. • i) Materials and Reagents
a) Cells in log-phase are collected and counted. Cell suspensions are added to each well of 384-w plate at a suitable density. The margin wells are filled with PBS.
b) Test compound at various concentrations are added in duplicates
c) The cells were incubated for 72 h in 370/5% CO 2 incubator.
d) After incubation, CellTiter-Glo® Reagent is added to each test well and shack for 2 minutes on an orbital shaker.
e) The plates are shortly centrifuged at 90×g for 30 s and incubated at room temperature for additional 10 minutes to stabilize the luminescent signal.
f) Luminescence signals are detected on PHERAstar Plus.
g) Data is collected in Microsoft excel forms and analyzed with GraphPad Prism v.6 software. • iii) Data analysis
The potential effect of the testing compounds an cell proliferation was calculated by the formula below: Inhibition %=[…]
Since hsMTHFD2 is expressed in human mitochondria and overexpressed in many tumor cells we next aimed to evaluate its potential as an anticancer compound. To this end IC50 values for carolacton were determined for six different cancer cell lines as well as HUVEC cells as primary non-tumor cells. The CellTiter-Glo luminescent cell viability assay (Promega) was used on triplicate cultures grown for three days. Each cell line was tested in three independent experiments (performed at different times and by different experimentators): First, using natural carolacton purified from culture supernatants of Sorangium cellulosum and solved in methanol; second, using carolacton synthesized de novo according to Schmidt et al. 2012 and solved in DMSO; and third, using synthetic carolacton synthesized de novo according to Schmidt et al. 2012 and solved in methanol.

With CO[C@H](CC(=O)O)[C@@H](C)C(=O)[C@H](C)/C=C(\C)[C@H]1OC(=O)[C@H](O)[C@H](O)/C=C/[C@H](C)CCC[C@@H]1C [Carolacton, carolacton] the IC50 (ecFoID) was 0.0498 µM, the Ki (ecFoID; Ki (5,10-CH═THF), carolacton inhibition on CYH activity, ecFoID, vs 5,10-CH=THF) was 0.032 µM and 0.0316 µM and the IC50 (THP-1 cells; THP 1, synthetic C, methanol, read-out: IC50 inhibition of cancer cell proliferation) was 49.6 µM. It also gave an IC50 (THP-1 cells; THP-1, natural C, methanol, read-out: IC50 inhibition of cancer cell proliferation) of 8.82 µM, an IC50 (THP-1 cells; read-out: IC50 inhibition of cancer cell proliferation, THP-1, synthetic C, DMSO) of 103 µM and a Bottom (THP-1 cells; THP 1, synthetic C, methanol) of 14.83. It also gave a Top (THP-1 cells; THP 1, synthetic C, methanol) of 67.53, a Bottom (THP-1 cells; THP-1, natural C, methanol) of 2.537 and a Top (THP-1 cells; THP-1, natural C, methanol) of 75.92. The Bottom (THP-1 cells; THP-1, synthetic C, DMSO) was −4.341 and the Top (THP-1 cells; THP-1, synthetic C, DMSO) was “=100.0”.
